Results reported in patent publication US20260285850A1, “SUBSTITUTED OXAZOLIDINONES AND IMIDAZOLINONES AS HERBICIDES” (FMC CORPORATION, priority 2023, published 2026).

Columns and labels:
Assay type in all cases: in vivo
[1] = system: green foxtail (Setaria viridis); assay: Test A preemergence soil spray, visual injury rating 0-100; conditions: 10 days
How it was run: (§1)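 Plants were grown in a loam soil-sand blend and treated with test chemical in a non-phytotoxic solvent mixture containing surfactant, either sprayed on soil preemergence or applied postemergence to 2-10 cm plants. After 10 days in a greenhouse, injury was scored visually against untreated controls, 0 meaning no effect and 100 complete control.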

[2] = system: palmer (palmer amaranth, palmer pigweed, Amaranthus palmeri); assay: as above; conditions: 10 days
How it was run: as §1

[3] = system: barnyardgrass (Echinochloa crus-galli); assay: as above; conditions: 10 days
How it was run: as §1

[4] = system: ryegrass, Italian (italian ryegrass, Lolium multiflorum); assay: as above; conditions: 10 days
How it was run: as §1

kochia (Bassia scoparia) [5] = assay: as above; conditions: 62 g ai/ha, 10 days, 0 = no effect, 100 = complete control
How it was run: as §1

[6] = system: blackgrass (Alopecurus myosuroides); assay: as above; conditions: 10 days
How it was run: as §1

soybean (Glycine max) [7] = assay: as above; conditions: 10 days
How it was run: as §1

[8] = system: oat, wild (wild oat, Avena fatua); assay: as above; conditions: 10 days
How it was run: as §1

corn (Zea mays) [9] = assay: as above; conditions: 10 days
How it was run: as §1

[10] = system: wheat (Triticum aestivum); assay: as above; conditions: 10 days
How it was run: as §1

[11] = system: ragweed (common ragweed, Ambrosia artemisiifolia); assay: as above; conditions: 10 days
How it was run: as §1

[12] = system: barnyardgrass (Echinochloa crusgalli); assay: Test B flooded paddy test, visual plant response rating 0-100; conditions: 250 g ai/ha, Flood, applied to paddy water, evaluated after 13 days
How it was run: (§2)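 Greenhouse, 13 d. Seedlings at 2-leaf stage, pots flooded to 3 cm, compound delivered into floodwater, water level held constant. Evaluated visually relative to controls.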

[13] = system: ducksalad (Heteranthera limosa); assay: as above; conditions: 250 g ai/ha, Flood, applied to paddy water, evaluated after 13 days
How it was run: as §2

[14] = system: sedge, umbrella (small-flower umbrella sedge, Cyperus difformis); assay: as above; conditions: 250 g ai/ha, Flood, applied to paddy water, evaluated after 13 days
How it was run: as §2

rice (Oryza sativa) = assay: as above; conditions: 250 g ai/ha, Flood, applied to paddy water, evaluated after 13 days
How it was run: as §2

[15] = system: green foxtail (Setaria viridis); assay: Test A postemergence application, visual injury rating 0-100
How it was run: as §1

[16] = system: horseweed (Erigeron canadensis); assay: as above
How it was run: as §1

[17] = system: palmer (palmer amaranth, palmer pigweed, Amaranthus palmeri); assay: as above
How it was run: as §1

[18] = system: barnyardgrass (Echinochloa crus-galli); assay: as above
How it was run: as §1

[19] = system: ryegrass, Italian (italian ryegrass, Lolium multiflorum); assay: as above
How it was run: as §1

[20] = system: galium (catchweed bedstraw, Galium aparine); assay: as above
How it was run: as §1

kochia (Bassia scoparia) [21] = assay: as above
How it was run: as §1

[22] = system: blackgrass (Alopecurus myosuroides); assay: as above
How it was run: as §1

soybean (Glycine max) [23] = assay: as above
How it was run: as §1

[24] = system: oat, wild (wild oat, Avena fatua); assay: as above
How it was run: as §1

corn (Zea mays) [25] = assay: as above
How it was run: as §1

[26] = system: wheat (Triticum aestivum); assay: as above
How it was run: as §1

[27] = system: ragweed (common ragweed, Ambrosia artemisiifolia); assay: as above
How it was run: as §1

[28] = 62 g ai/ha, 0 = no effect, 100 = complete control
[29] = 62 g ai/ha, postemergence, 10 days, 0 = no effect, 100 = complete control
[30] = Postemergence, 16 g ai/ha, greenhouse 10 days, 0 no effect, 100 complete control

## CC(C)COC(=O)C1=CCC(NC(=O)C2(C)CN(c3cc(Cl)cc(Cl)c3)C(=O)O2)C1 (stereo not drawn) [Compound 155]
[1]; 16 g ai/ha, 0 to 100 scale
  Foxtail, Green plant response rating: 30
[1]; [28]
  Foxtail, Green plant response rating (0-100): 30
[2]; 16 g ai/ha, 0 to 100 scale
  Pigweed, Palmer plant response rating: 0
[2]; [28]
  Pigweed, Palmer plant response rating (0-100): 0
[3]; 16 g ai/ha, 0 to 100 scale
  Barnyardgrass plant response rating: 0
[3]; [28]
  Barnyardgrass plant response rating (0-100): 10
[4]; 16 g ai/ha, 0 to 100 scale
  Ryegrass, Italian plant response rating: 0
[4]; [28]
  Ryegrass, Italian plant response rating (0-100): 0
Kochia (Bassia scoparia) [5]
  Kochia plant response rating (0-100): 20
[6]; 16 g ai/ha, 0 to 100 scale
  Blackgrass plant response rating: 0
[6]; [28]
  Blackgrass plant response rating (0-100): 0
Soybean (Glycine max) [7]; 16 g ai/ha, 0 to 100 scale
  Soybean plant response rating: 0
Soybean (Glycine max) [7]; [28]
  Soybean plant response rating (0-100): 0
[8]; 16 g ai/ha, 0 to 100 scale
  Oat, Wild plant response rating: 0
[8]; [28]
  Oat, Wild plant response rating (0-100): 0
Corn (Zea mays) [9]; 16 g ai/ha, 0 to 100 scale
  Corn plant response rating: 0
Corn (Zea mays) [9]; [28]
  Corn plant response rating (0-100): 0
[10]; 16 g ai/ha, 0 to 100 scale
  Wheat plant response rating: 0
[10]; [28]
  Wheat plant response rating (0-100): 10
[11]; 16 g ai/ha, 0 to 100 scale
  Ragweed plant response rating: 0
[11]; [28]
  Ragweed plant response rating (0-100): 0
[12]
  Plant response rating, Barnyardgrass (0 to 100 scale, 0 is no effect and 100 is complete control): 0
[13]
  Plant response rating, Ducksalad (0 to 100 scale, 0 is no effect and 100 is complete control): 0
[14]
  Plant response rating, Sedge, Umbrella (0 to 100 scale, 0 is no effect and 100 is complete control): 0
Rice (Oryza sativa)
  Plant response rating, Rice (0 to 100 scale, 0 is no effect and 100 is complete control): 0
[15]; [29]
  Foxtail, Green plant response rating (0-100): 20
[15]; [30]
  Foxtail, Green plant response rating (0 to 100 scale): 0
[16]; [29]
  Horseweed plant response rating (0-100): 0
[16]; [30]
  Horseweed plant response rating (0 to 100 scale): 0
[17]; [29]
  Pigweed, Palmer plant response rating (0-100): 0
[17]; [30]
  Pigweed, Palmer plant response rating (0 to 100 scale): 0
[18]; [29]
  Barnyardgrass plant response rating (0-100): 10
[18]; [30]
  Barnyardgrass plant response rating (0 to 100 scale): 0
[19]; [29]
  Ryegrass, Italian plant response rating (0-100): 0
[19]; [30]
  Ryegrass, Italian plant response rating (0 to 100 scale): 0
[20]; [29]
  Galium plant response rating (0-100): 70
[20]; [30]
  Galium plant response rating (0 to 100 scale): 0
Kochia (Bassia scoparia) [21]; [29]
  Kochia plant response rating (0-100): 40
Kochia (Bassia scoparia) [21]; [30]
  Kochia plant response rating (0 to 100 scale): 0
[22]; [29]
  Blackgrass plant response rating (0-100): 0
[22]; [30]
  Blackgrass plant response rating (0 to 100 scale): 0
Soybean (Glycine max) [23]; [29]
  Soybean plant response rating (0-100): 20
Soybean (Glycine max) [23]; [30]
  Soybean plant response rating (0 to 100 scale): 0
[24]; [29]
  Oat, Wild plant response rating (0-100): 0
[24]; [30]
  Oat, Wild plant response rating (0 to 100 scale): 0
Corn (Zea mays) [25]; [29]
  Corn plant response rating (0-100): 0
Corn (Zea mays) [25]; [30]
  Corn plant response rating (0 to 100 scale): 0
[26]; [29]
  Wheat plant response rating (0-100): 0
[26]; [30]
  Wheat plant response rating (0 to 100 scale): 0
[27]; [29]
  Ragweed plant response rating (0-100): 30
[27]; [30]
  Ragweed plant response rating (0 to 100 scale): 0
